# How the values were obtained:
# Rhizoctonia solani = assay: Fungicidal efficacy by gassing, colonized barley grains; format: cell-based; parameters: Vitality score Nm (over 11 days): scale not given here; Reduction in viability RV / Reduction in vitality score RNm: unit not given here; conditions: for Reduction in viability RV / Reduction in vitality score RNm: compared with the control
# Procedure: These four organisms are the following:
# Rhizoctonia solani: a very important group of polyphagous pathogens in the genus Rhizoctonia and which attack very many market garden crops including sweet pepper and lettuce.
# • Sclerotinia sclerotiorum: sclerotia • Sclerotium rolfsii: sclerotia • Rhizoctonia solani: colonized barley grains (mycelium and sclerotia) • Phytophthora cactorum: colonized millet grains (mycelium, sporangia and oospores) Preparation of the Fungi (24 h Before the Gassing Operation) 1. Preparation of the sclerotia of Sclerotinia sclerotiorum and of Sclerotium rolfsii: The fungi are cultured on malt agar medium until the sclerotia are obtained. The sclerotia are collected in a sterile manner and stored dry in empty Petri dishes until they are used. The sclerotia used for the trial are over 3 months old and are perfectly dormant. 2. Preparation of Phytophthora cactorum and of Rhizoctonia solani: The millet and barley used for the multiplication of the two fungi are moistened with ultrapure water by immersing for 24 hours. The grains are then slightly drained and then distributed into flasks and autoclaved (3 autoclavings at 110° C. for 20 minutes, 3 times at 24 hour intervals). Fragments of fungal culture are introduced into the flasks which are then incubated at 22° C.±2° C. (white light 18 h) until homogeneous colonization is obtained. The grains are then removed from the flasks in a sterile manner, dried in the sterile stream of a safety cabinet and then stored in the dry state until they are used. Conditions for Gassing and for Desorption
# All the batches of fungi to be treated are placed for a few hours at the trial temperature (20° C.). Between 35 and 300 units of fungi or “propagules” (grains or sclerotia) are subjected to gassing during each trial.
# Each fumigation chamber comprising to one or more species of fungi corresponds to a glass round-bottomed flask which is impervious to the gas and has a volume of 11 litres. Each round-bottomed flask is equipped with branch connections, one at the bottom for introducing the liquid DMDS, one at the top for collecting the air sample with a syringe.
# Before introducing the gas, a partial vacuum (−500 mbar) is established in the round-bottomed flask with a vacuum pump. This makes it possible, on the one hand, to avoid the phenomenon of excess pressure due to the expansibility of DMDS in the round-bottomed flask and, on the other hand, to promote better homogeneity of the air-gas mixture in the first few seconds which follow injection. The DMDS (weighed accurately to the mg) is injected with a syringe, in liquid form, through the bottom branch connection, that is to say under the screen placed at half height of the round-bottomed flask and supporting the batches of fungi. After introducing the product, the internal pressure of the round-bottomed flask is re-established at atmospheric pressure. A magnetic stirrer operates during the entire duration of the treatment in order to properly homogenize the air-gas mixture.
# At the end of the gassing, the cover for the round-bottomed flask is removed. One minute after this operation, the batches of fungi gassed are taken out and left in the open air for 15 minutes for desorption of the DMDS. They are then transferred into a Petri dish, the latter remaining open for 5 minutes to allow perfect desorption of the gas. […]
# [1] = tested on: young cucumber plants (9 cm, 2 leaves, ARIS hybrid); assay: Phytotoxicity on young cucumber plants; format: in vivo
# Procedure: For both types of crop, 4 treatments were performed on 20 plants: • untreated control • 360 kg/ha of DMDS • 540 kg/ha of DMDS • 720 kg/ha of DMDS
# Five days after the treatment, the young plants are transplanted into pots 20 cm in diameter and 35 cm in height.
# The observations relating to the number of leaves per plant and the visual state of the plants are carried out 15 and 41 days after the transplantation: […]
# [2] = CT 1 050 g·h/m^3 (C 15.91 g/m^3, T 66 h)
# [3] = CT 1 402 g·h/m^3 (C 21.24 g/m^3, T 66 h)
# [4] = CT 1 450 g·h/m^3 (C 30.96 g/m^3, T 48 h)
# [5] = CT 1 899 g·h/m^3 (C 28.77 g/m^3, T 66 h)
# [6] = CT 1 981 g·h/m^3 (C 30.02 g/m^3, T 66 h)
# [7] = CT 2 460 g·h/m^3 (C 51.25 g/m^3, T 48 h)
# [8] = CT 2 471 g·h/m^3 (C 37.44 g/m^3, T 66 h)
# [9] = CT 2 837 g·h/m^3 (C 42.98 g/m^3, T 66 h)
# [10] = CT 2 974 g·h/m^3 (C 45.06 g/m^3, T 66 h)
# [11] = CT 3 169 g·h/m^3 (C 48.02 g/m^3, T 66 h)
# [12] = CT 3 467 g·h/m^3 (C 52.53 g/m^3, T 66 h)
# [13] = CT 419 g·h/m^3 (C 17.46 g/m^3, T 24 h)
# [14] = CT 625 g·h/m^3 (C 26.04 g/m^3, T 24 h)
# [15] = CT 703 g·h/m^3 (C 29.29 g/m^3, T 24 h)
# [16] = CT 907 g·h/m^3 (C 37.79 g/m^3, T 24 h)
compound,measurement,setting,value
"CSSC [DMDS, dimethyl disulphide]",Viability V,Rhizoctonia solani; [2],89.2%
same,Vitality score Nm (over 11 days),Rhizoctonia solani; [2],7.0
same,Reduction in viability RV,Rhizoctonia solani; [2],10.8
same,Reduction in vitality score RNm,Rhizoctonia solani; [2],22.2
same,Viability V,Rhizoctonia solani; [3],96.9%
same,Vitality score Nm (over 11 days),Rhizoctonia solani; [3],7.6
same,Reduction in viability RV,Rhizoctonia solani; [3],3.1
same,Reduction in vitality score RNm,Rhizoctonia solani; [3],15.0
same,Viability V,Rhizoctonia solani; [4],98.5%
same,Vitality score Nm (over 11 days),Rhizoctonia solani; [4],4.4
same,Reduction in viability RV,Rhizoctonia solani; [4],1.5
same,Reduction in vitality score RNm,Rhizoctonia solani; [4],51.3
same,Viability V,Rhizoctonia solani; [5],84.3%
same,Vitality score Nm (over 11 days),Rhizoctonia solani; [5],6.0
same,Reduction in viability RV,Rhizoctonia solani; [5],15.7
same,Reduction in vitality score RNm,Rhizoctonia solani; [5],33.2
same,Viability V,Rhizoctonia solani; [6],94.7%
same,Vitality score Nm (over 11 days),Rhizoctonia solani; [6],7.4
same,Reduction in viability RV,Rhizoctonia solani; [6],5.3
same,Reduction in vitality score RNm,Rhizoctonia solani; [6],17.2
same,Viability V,Rhizoctonia solani; [7],11.0%
same,Vitality score Nm (over 11 days),Rhizoctonia solani; [7],0.3
same,Reduction in viability RV,Rhizoctonia solani; [7],89.0
same,Reduction in vitality score RNm,Rhizoctonia solani; [7],96.2
same,Viability V,Rhizoctonia solani; [8],24.1%
same,Vitality score Nm (over 11 days),Rhizoctonia solani; [8],0.6
same,Reduction in viability RV,Rhizoctonia solani; [8],75.9
same,Reduction in vitality score RNm,Rhizoctonia solani; [8],92.0
same,Viability V,Rhizoctonia solani; [9],2.2%
same,Vitality score Nm (over 11 days),Rhizoctonia solani; [9],0.1
same,Reduction in viability RV,Rhizoctonia solani; [9],97.8
same,Reduction in vitality score RNm,Rhizoctonia solani; [9],98.4
same,Viability V,Rhizoctonia solani; [10],9.4%
same,Vitality score Nm (over 11 days),Rhizoctonia solani; [10],0.1
same,Reduction in viability RV,Rhizoctonia solani; [10],90.6
same,Reduction in vitality score RNm,Rhizoctonia solani; [10],98.4
same,Viability V,Rhizoctonia solani; [11],1.2%
same,Vitality score Nm (over 11 days),Rhizoctonia solani; [11],0.05
same,Reduction in viability RV,Rhizoctonia solani; [11],98.8
same,Reduction in vitality score RNm,Rhizoctonia solani; [11],99.3
same,Viability V,Rhizoctonia solani; [12],0%
same,Vitality score Nm (over 11 days),Rhizoctonia solani; [12],0
same,Reduction in viability RV,Rhizoctonia solani; [12],100
same,Reduction in vitality score RNm,Rhizoctonia solani; [12],100
same,Viability V,Rhizoctonia solani; [13],100%
same,Vitality score Nm (over 11 days),Rhizoctonia solani; [13],9.0
same,Reduction in viability RV,Rhizoctonia solani; [13],0
same,Reduction in vitality score RNm,Rhizoctonia solani; [13],0
same,Viability V,Rhizoctonia solani; [14],100%
same,Vitality score Nm (over 11 days),Rhizoctonia solani; [14],8.7
same,Reduction in viability RV,Rhizoctonia solani; [14],0
same,Reduction in vitality score RNm,Rhizoctonia solani; [14],3.1
same,Viability V,Rhizoctonia solani; [15],100%
same,Vitality score Nm (over 11 days),Rhizoctonia solani; [15],8.3
same,Reduction in viability RV,Rhizoctonia solani; [15],0
same,Reduction in vitality score RNm,Rhizoctonia solani; [15],7.3
same,Viability V,Rhizoctonia solani; [16],100%
same,Vitality score Nm (over 11 days),Rhizoctonia solani; [16],7.1
same,Reduction in viability RV,Rhizoctonia solani; [16],0
same,Reduction in vitality score RNm,Rhizoctonia solani; [16],21.6
same,Visual symptom of phytotoxicity,"[1]; 360, 540, 720 kg/ha, 15 and 41 days after transplantation",no visual symptom of phytotoxicity
same,Average number of leaves per plant,"[1]; 360 kg/ha DMDS (formulation A), after 15 days",5.3
same,Average number of leaves per plant,"[1]; 360 kg/ha DMDS (formulation A), after 41 days",9.8
same,Average number of leaves per plant,"[1]; 540 kg/ha DMDS (formulation A), after 15 days",5.7
same,Average number of leaves per plant,"[1]; 540 kg/ha DMDS (formulation A), after 41 days",9.7
same,Average number of leaves per plant,"[1]; 720 kg/ha DMDS (formulation A), after 15 days",5.7
same,Average number of leaves per plant,"[1]; 720 kg/ha DMDS (formulation A), after 41 days",9.9
same,Difference in number of leaves between untreated control and treated plants,[1]; regardless of the concentration tested (360-720 kg/ha),no significant difference

# — patent US8663669B2, “Pesticide treatment of soils or substrates with sulphur compounds” (Arkema France, priority 2002, dated 2014)
